Results as given in patent US7989495B2, “Compositions and methods for inhibiting NF-κB mediated tumorigenicity and adhesion dependent survival of cancer cells” (University of Utah Research Foundation, priority 2002, dated 2011).

Columns and labels:
[1] = tested on: NF-κB (p65) binding to NF-κB consensus oligonucleotides; assay: NF-κB binding activity assay (Trans-AM) on lysates of treated HT-29 cells; format: cell-based
Procedure: (§1) The transiently suspended cells were lysed and allowed to bind to DNA oligonucleotides, containing the NF-κB consensus binding site, that were immobilized to 96-well plates. NF-κB protein bound to the oligonucleotides was detected by an antibody to the p65 subunit that only recognized p65 that is bound to DNA. The positive control was HeLa cells that were stimulated with TNFα A control was performed using excess free NF-κB oligonucleotides (Competitor). […] NF-κB binding activity was determined by the TransAM assay as in FIG. 5A. […] The data shown represent typical results of three separate experiments. […] An immunoblot for COX-2 was performed.
Activation of NF-κB was also determined using the Trans-AM™ assay (Active Motif, Carlsbad, Calif.) per the manufacturer's instructions. (Renard et al., 2001) Briefly, cell monolayers on 60 mm dishes were washed with ice-cold PBS and removed by incubating in trypsin-PBS or scraping. The cells were centrifuged for 10 minutes at 1,000 rpm at 4° C. and resuspended for 10 minutes in 100 μl of 4° C. lysis buffer (20 mM HEPES (pH 7.5), 350 mM NaCl, 20% glycerol, 1% Igepal-CA630, 1 mM MgCl2, 0.5 mM EDTA, 0.1 mM EGTA, 1 μl of 1 M dithiothreitol and 10 μl of protease inhibitor cocktail (proprietary) per ml of lysis buffer). The lysates were centrifuged for 20 minutes at 14,000 g at 4° C. Lysates containing 5 μg of total protein were added to 20 μl of lysis buffer per well in 96-well dishes containing immobilized oligonucleotides corresponding to the NF-κB consensus DNA binding site (5′-GGGACTTTCC-3′) (SEQ ID NO:2). The plate was covered with an adhesive film and incubated for 1 hour at room temperature on a rocker. The wells were then washed three times with 200 μl per well of washing buffer (100 mM phosphate buffer (pH 7.5), 500 mM NaCl, 1% Tween). 100 μl of p65subunit monoclonal antibody (the p65 antibody supplied with the kit only recognizes p65-containing NF-κB heterodimers that are bound to DNA containing the NF-κB consensus binding sequence) was diluted 1:1,000 in 1× antibody binding buffer (4 mM HEPES (pH 7.5), 120 mM KCl, 8% glycerol, 1% bovine serum albumin) and added to each well and incubated for 1 hour at room temperature. The wells were washed with 100 μl of washing buffer three times. 100 μl of horseradish peroxidase-conjugated secondary antibody diluted 1:1,000 in 1× antibody binding buffer was added to each well and incubated for 1 hour at room temperature without agitation. […] 100 μl of stop solution (0.5 M H2SO4) was added to each well after which the absorbance was determined on a plate spectrophotometer at 450 nm. Specificity of binding was determined using 200-fold excess wildtype NF-κB oligonucleotides added at the time the cell lysates were added to the wells. […]

293-COX-2 cells = assay: Apoptosis of 293 cells with ponasterone-inducible COX-2; format: cell-based; conditions: 8 hours
Procedure: as §1
DLD-1, HCT-116, and HT-29 colon cancer cell lines were obtained from the ATCC collection and were cultured in Dulbecco's Modification of Eagle's Medium supplemented with 10% fetal bovine serum, glutamine, penicillin, and streptomycin. […]
Single cell suspensions were plated at 100,000 cells per well in 24-well plates in media containing DMSO, BAY 11-7082, BAY 11-7085, or MG-132 for 8-24 hours in an incubator. […] 400 μl of binding buffer was added to each tube and the cells were analyzed by flow cytometry immediately. The percent of apoptosis was determined as the percent of annexin V-positive, propidium iodide-negative cells of the total cells counted. […]

## CC(C)(C)c1ccc(S(=O)(=O)/C=C/C#N)cc1 [BAY 11-7085, (2E)-3-[4-(tertiarybutylphenyl)sulfonyl]-2-propenenitrile]
[1]; adherent HT-29, increasing concentrations, 8 hours
  constitutive NF-κB activation in adherent cells: relatively unaffected
[1]; adherent colon cancer cells, doses up to 50 μM
  inhibition of constitutive NF-κB activation in adherent cells: could not be inhibited
[1]; transiently suspended HT-29, increasing concentrations, 8 hours
  inhibition of NF-κB activation caused by readhesion: dose-related inhibition of this NF-κB activation
[1]; transiently suspended colon cancer cells, as little as 10 μM
  inhibition of NF-κB activation induced by readhesion: almost totally inhibited
293-COX-2 cells; ponasterone-induced (1 μg/ml, 48 hours) 293-COX-2 cells
  apoptosis following treatment: marked increase in BAY 11-7085-induced apoptosis
293-COX-2 cells; uninduced 293-COX-2 cells
  apoptosis following treatment: no increase in apoptosis
